Patent US10130651B2, “RNAi Therapy for Hepatitis B Virus Infection” (Arrowhead Pharmaceuticals, Inc., priority 2015, dated 2018)
Ends that are not written are not given here.

Assays:
Assay type in all cases: in vivo, NOD-SCID mice (pHBV model)
[1] = tested on: Hepatitis B surface antigen (HBsAg), Hepatitis B Virus; test: Serum HBsAg (ELISA) in pHBV model mice after IV MLP delivery peptide+HBV RNAi triggers (Example 7); settings: 8 mg/kg MLP delivery peptide without HBV RNAi triggers
Excerpt: (§1) At day −42, 6 to 8 week old female NOD.CB17-Prkdscid/NcrCrl (NOD-SCID) mice were transiently transfected in vivo with MC-HBV1.3 by hydrodynamic tail vein injection (Yang P L et al. “Hydrodynamic injection of viral DNA: a mouse model of acute hepatitis B virus infection.” PNAS USA 2002 Vol. 99: p. 13825-13830). MC-HBV1.3 is a plasmid-derived minicircle that contains the same terminally redundant human hepatitis B virus sequence HBV1.3 as in the HBV1.3.32 transgenic mice (GenBank accession #V01460) (Guidotti L G et al. “High-level hepatitis B virus replication in transgenic mice. J Virol 1995 Vol. 69, p 6158-6169.). […] At day −21, three weeks post transfection, Hepatitis B surface antigen (HBsAg) HBsAg expression levels in serum were measured by ELISA and the mice were grouped according to average HBsAg expression levels. […]
(§2) At various times, before and after administration of MLP delivery peptide+HBV RNAi triggers, isotonic glucose, or MLP delivery peptide alone, serum HBsAg, serum HBV DNA, or liver HBV RNA were measured. […]
Serum was collected and diluted 10 to 2000-fold in PBS containing 5% nonfat dry milk. […] HBsAg levels were determined with a GS HBsAg EIA 3.0 kit (Bio-Rad Laboratories, Inc., Redmond, Wash.) as described by the manufacturer. […]

[2] = Clinical chemistry (liver and renal function) in pHBV model mice; settings: day 2 (24 hours post-injection) vs day −1
Description: Clinical chemistry markers in mouse serum were measured using a COBAS Integra 400 (Roche Diagnostics, Indianapolis, Ind.) chemical analyzer according to the manufacturer's instructions.
Liver and renal functions were evaluated on day −1 (pre-injection) and day 2 (24 hours post-injection).

[3] = tested on: HBV DNA, Hepatitis B Virus; test: Serum HBV DNA (qPCR) in pHBV model mice (Example 7); settings: 8 mg/kg MLP delivery peptide without HBV RNAi triggers
Excerpt: as §1, §2
The number of copies of HBV genomes in DNA isolated from the pHBV mouse model serum was determined by qPCR. […]
qPCR assays were performed on a 7500 Fast or StepOne Plus Real-Time PCR system (Life Technologies). […] Quantitations of HBV DNA and recovery control plasmid were determined by qPCR reactions performed in triplicate. […]

## MLP delivery peptide: MLP SEQ ID NO: 650 (GIL MLP, L-form) reversibly masked with CDM-NAG (LIGAILKVLATGLPTLISWIKNKRKQ; also: reversibly masked with CDM-NAG)
[1]
  HBsAg levels in serum: comparable to levels in mice that received a single injection of isotonic glucose
[2]
  evidence of toxicity: nor was there any evidence of toxicity
[3]
  HBV DNA levels in serum: comparable to levels in mice that received a single injection of isotonic glucose
